Like-named read-outs stand apart in the source and are kept apart here.
Tests used:
JAK3 = target: T1, JAK3 (Homo sapiens, UniProt P52333); experiment: JAK3 biochemical assay (ADP-GLO Kinase Assay); details: for JAKs/HPK1 IC50 Ratio, B* / JAKs/HPK1 IC50 Ratio, N*: ratio of JAK3 IC50 to HPK1 IC50; for JAKs/HPK1 IC50 Ratio, B*: first testing facility; for JAKs/HPK1 IC50 Ratio, N*: second testing facility
T1 construct: purchased Thermo fisher PV3855
Procedure: Biology Example 4 JAK3 Biochemical Assay
This example used the ADP-GLO™ Kinase Assay to measure the effect of potential HPK1 inhibitor compounds on JAK3 kinase activity. An exemplary experimental setting is described below, though minor adjustments can be made in individual assays.
3. Procedures • 1. Prepare JAK3 kinase buffer • Freshly adding DTT and BSA into Buffer (Final Conc.: 40 mM Tris pH7.5; 20 mM MgCl2, 0.1 mg/ml BSA, 50 μM DTT).
• 2. Compounds Preparation • For tested compounds: compounds were diluted to 1 mM, by mixing 5 μL of 10 mM compound stocks to 45 μL DMSO. The compounds solutions were then serially diluted 3-fold for 10 doses. The top compound concentration was 1 mM (100×), DMSO concentration was 100%. • 50 nL of each of 10 doses of diluted compound were added to 384-well assay plate (Corning #4512) by ECHO. • For positive control, 50 nL of 1 mM reference compound were added to 384-well assay plate (Corning #4512) by ECHO. • For negative control: 50 nL of DMSO was transferred into 384-well assay plate as a negative control. • The assay plate was centrifuged at 1,500 rpm for 1 minute. • 3. Compounds were Transferred by ECHO Following the Layout Below: • Reference and test compounds 1-15: serial 3-fold dilution from 10 μM to 0.508 nM (10 doses); negative control is 0.78 ng JAK3, 4 μM ATP & 0.2 μg/μL poly, 1% DMSO; positive control is the top dose of the reference compound, 0.78 ng JAK3, 0.2 μg/μL Poly(E4Y1), 4 μMATP, 1% DMSO. • 4. Add 2.5 μL/well of 2×JAK3 working solution using pipette (Thermo, 30 μL multi-channel), Centrifuge at 1,500 rpm for 1 minute. • 5. Add 2.5 μL/well of 2×ATP-Poly(E4Y1) working mixture using pipette (Thermo, 30 μL multi-channel), Centrifuge at 1,500 rpm for 1 minute. • 6. Incubate the assay plate at 25° C. for 60 min. • 7. Add 5 μL/well ADP-GLO™ Reagent by BRAVO to stop the kinase reaction and deplete the unconsumed ATP after 1 hour. Centrifuge at 1,500 rpm for 1 minute. Incubate at 25° C. for 40 min. • 8. Add 10 uL of Kinase Detection Reagent by BRAVO to convert ADP to ATP. Centrifuge at 1,500 rpm for 1 minute. Incubate at 25° C. for 40 min. • 9. Record luminescence signal on an Envision plate reader (384-USL). • 10. Process data using XL-fit. Inhibition %=[1-(test well−Negative control)/(positive control−Negative control)]*100%. 5. Data Analysis
The percent (%) inhibition at each concentration of compound is calculated based on and relative to the signal in the Negative and Positive control wells contained within each assay plate. The Negative control wells served as 0% inhibition, and the Positive control wells served as 100% inhibition. The concentrations and % inhibition values for tested compounds are plotted and the concentration of compound required for 50% inhibition (IC50) is determined with a Three-parameter logistic dose response equation. The endpoint value (IC50) for the reference peptide/compound is evaluated in each experiment as a quality control measure. If the endpoint value was within 3-fold of the expected value then the experiment was deemed acceptable.

HPK1 = HPK1 (Homo sapiens, UniProt Q92918); experiment: HPK1 biochemical assay (ADP-GLO Kinase Assay)
Text: IC50 values of any compounds can be determined accordingly over a range of inhibitor concentrations. In addition, the inhibitory effect of the compounds can also be assess using a biological assay, to determine the effect of the compounds on cytokine secretion by T cells following TCR and CD28 stimulation.
Biology Example 1 HPK1 Biochemical Assay
This example used the ADP-GLO™ Kinase Assay to measure the effect of potential HPK1 inhibitor compounds on HPK1 kinase activity.
The ADP-GLO™ Kinase Assay (Promega Corp., Madison, WI) measures ADP formed from a kinase reaction. According to the manufacture, the ADP formed in a kinase assay is first converted into ATP, which is then used to generate light in a luciferase reaction. The luminescence generated correlates with kinase activity. An exemplary experimental setting is described below, though minor adjustments can be made in individual assays.
Serial 3-fold dilution of compounds from 10 μM (top concentration) to 0.508 nM (lowest concentration). Positive control is 10 μM Reference+enzyme+substrate. Negative control is 1% DMSO+enzyme+substrate.
• 1. Buffer Preparation • 40 mM Tris pH7.5; 20 mM MgCl2, 0.1 mg/ml BSA, 50 μM DTT Buffer Stock
Add 20 mL 1M Tris and 10 mL 1M MgCl2 to 470 mL ddH2O to get buffer stock, and stock at RT. • 2. Preparing Fresh 1* Assay Buffer
• 3. Compounds Preparation • 1) The compounds were diluted to 1 mM, by mixing 10 μL of 10 mM respective compound stocks with 90 μL of DMSO. • 2) The compounds were then diluted 3-fold for 10 doses (5 μL to 10 μL dilution) by BRAVO. The top compound conc. was 1 mM (100×), DMSO Conc. was 100%. • 3) Transfer 100 nL of each diluted compound sample to 384-well plate (Corning-4512) by ECHO. • 4) Centrifuge the plate at 1,500 rpm for 1 minute. • 4. Preparation of 2×ATP-MBP Mixture: • 20 μM ATP, 0.2 μg/μL MBP in Kinase Buffer (final concentration: 10 μM ATP, 0.1 MBP)
• 5. Preparation of 2×HPK1 working solution with assay buffer. • HPK1 final concentration was 0.6 ng/μL. […] Incubate at 25° C. for 40 min. • 11. Record luminescence signal on an Envision plate reader (384-CTG). 5. Data Analysis
The percent (%) inhibition at each concentration of compound is calculated based on and relative to the signal in the High and Low control wells contained within each assay plate. […] The concentrations and % inhibition values for tested compounds were plotted and the concentration of compound required for 50% inhibition (IC50) was determined with a Three-parameter logistic dose response equation. The endpoint value (IC50) for the reference peptide/compound was evaluated in each experiment as a quality control measure. If the endpoint value was within 3-fold of the expected value, then the experiment was deemed acceptable.

[1] = B*: testing performed in a first testing facility, read-out: JAK3 IC50 (nM) Relative, B*
[2] = B*: testing performed in a first testing facility, read-out: HPK1 IC50 (nM) Relative, B*
[3] = N*: testing performed in a second testing facility, read-out: JAK3 IC50 (nM) Relative, N*
[4] = N*: testing performed in a second testing facility, read-out: HPK1 IC50 (nM) Relative, N*

T1 sequence (P52333 781-1124 limits assumed): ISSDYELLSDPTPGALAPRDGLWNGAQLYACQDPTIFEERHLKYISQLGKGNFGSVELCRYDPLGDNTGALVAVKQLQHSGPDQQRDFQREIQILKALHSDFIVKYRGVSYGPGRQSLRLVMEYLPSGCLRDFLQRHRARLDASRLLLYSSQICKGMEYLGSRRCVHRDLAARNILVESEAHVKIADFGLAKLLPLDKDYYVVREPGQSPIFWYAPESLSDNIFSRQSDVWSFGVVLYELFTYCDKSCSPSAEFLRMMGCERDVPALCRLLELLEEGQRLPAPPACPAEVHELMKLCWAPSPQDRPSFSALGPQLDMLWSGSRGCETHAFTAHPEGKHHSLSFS
HPK1, sequence (Q92918 whole entry): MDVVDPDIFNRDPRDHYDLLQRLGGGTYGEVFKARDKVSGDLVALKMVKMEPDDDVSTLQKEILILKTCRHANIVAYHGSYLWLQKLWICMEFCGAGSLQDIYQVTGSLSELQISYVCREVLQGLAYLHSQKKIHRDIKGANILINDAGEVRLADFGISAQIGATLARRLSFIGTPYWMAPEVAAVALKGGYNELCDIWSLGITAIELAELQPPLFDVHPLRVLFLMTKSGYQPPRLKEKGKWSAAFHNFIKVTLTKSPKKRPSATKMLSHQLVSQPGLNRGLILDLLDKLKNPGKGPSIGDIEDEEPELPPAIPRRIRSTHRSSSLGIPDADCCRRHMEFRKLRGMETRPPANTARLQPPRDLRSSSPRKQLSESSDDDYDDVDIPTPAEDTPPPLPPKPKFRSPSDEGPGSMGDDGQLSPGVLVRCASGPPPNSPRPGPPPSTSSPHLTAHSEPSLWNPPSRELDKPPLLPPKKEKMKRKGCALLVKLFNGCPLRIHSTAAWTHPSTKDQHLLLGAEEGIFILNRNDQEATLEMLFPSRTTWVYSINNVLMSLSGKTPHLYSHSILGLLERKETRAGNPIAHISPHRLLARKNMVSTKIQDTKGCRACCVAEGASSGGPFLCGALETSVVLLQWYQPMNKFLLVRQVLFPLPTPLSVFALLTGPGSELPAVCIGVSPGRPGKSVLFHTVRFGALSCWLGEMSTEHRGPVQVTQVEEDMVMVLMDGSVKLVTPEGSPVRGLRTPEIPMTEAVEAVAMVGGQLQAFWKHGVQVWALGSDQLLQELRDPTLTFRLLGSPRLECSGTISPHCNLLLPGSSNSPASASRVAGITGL

Structure (SMILES) | IC50 (JAK3; [1]) | JAKs/HPK1 IC50 Ratio, B* (JAK3) | IC50 (HPK1; [2]) | IC50 (JAK3; [3]) | JAKs/HPK1 IC50 Ratio, N* (JAK3) | IC50 (HPK1; [4])
COc1cc2c(cc1Nc1ncc3ccn(-c4ccccc4C(=O)N(C)C)c3n1)CN(C)CC2 [Example 38] | – | – | 100 to 500 nM | > 1000 nM | >163 | ≤ 100 nM
COc1cc2c(cc1Nc1ncc3ncn(-c4ccccc4)c3n1)CN(C)CC2 [Example 43, 6-Methoxy-2-methyl-N-(9-phenyl-9H-purin-2-yl)-1,2,3,4-tetrahydroisoquinolin-7-amine] | – | – | > 1000 nM | > 1000 nM | >10 | > 1000 nM
COc1cc2c(cc1Nc1ncc(Cl)c(N3CCOc4ccccc43)n1)CN(C)CC2 [Example 7, N-(5-chloro-4-(2,3-dihydro-4H-benzo[b][1,4]oxazin-4-yl)pyrimidin-2-yl)-6-methoxy-2-methyl-1,2,3,4-tetrahydroisoquinolin-7-amine] | > 1000 nM | >118 | ≤ 100 nM | – | – | –
CCc1c[nH]c2ncc(-c3ccc(CF)c(P(C)(C)=O)c3)cc12 [Example 74, (5-(3-Ethyl-1H-pyrrolo[2,3-b]pyridin-5-yl)-2-(fluoromethyl)phenyl)dimethylphosphine oxide] | > 1000 nM | 19 | 100 to 500 nM | – | – | –
CCc1c(Cl)[nH]c2ncc(-c3ccc(N)c(P(C)(C)=O)c3)cc12 [Example 69, (2-Amino-5-(2-chloro-3-ethyl-1H-pyrrolo[2,3-b]pyridin-5-yl)phenyl)dimethylphosphine oxide] | – | – | ≤ 100 nM | 500 to 1000 nM | 52 | ≤ 100 nM
COc1cc2c(cc1Nc1ncc3ccc(=O)n(-c4ccccc4)c3n1)CN(C)CC2 [Example 171, 2-((6-Methoxy-2-methyl-1,2,3,4-tetrahydroisoquinolin-7-yl)amino)-8-phenylpyrido[2,3-d]pyrimidin-7(8H)-one] | > 1000 nM | 121 | ≤ 100 nM | – | – | –
CCc1c[nH]c2ncc(-c3ccc(F)c(P(C)(C)=O)c3N)cc12 [Example 60, (2-Amino-3-(3-ethyl-1H-pyrrolo[2,3-b]pyridin-5-yl)-6-fluorophenyl)dimethylphosphine oxide] | > 1000 nM | 25 | ≤ 100 nM | – | – | –
CCc1c[nH]c2ncc(-c3ccc(C(F)F)c(P(C)(C)=O)c3)cc12 [Example 61, (2-(Difluoromethyl)-5-(3-ethyl-1H-pyrrolo[2,3-b]pyridin-5-yl)phenyl)dimethylphosphine oxide] | > 1000 nM | 15 | 100 to 500 nM | – | – | –

Second part, the compound after the results:

IC50 (JAK3; [1]) | JAKs/HPK1 IC50 Ratio, B* (JAK3) | IC50 (HPK1; [2]) | IC50 (JAK3; [3]) | JAKs/HPK1 IC50 Ratio, N* (JAK3) | IC50 (HPK1; [4]) | Structure (SMILES)
> 1000 nM | 250 | ≤ 100 nM | – | – | – | COc1cc2c(cc1Nc1ncc(Cl)c(-n3cc(C(C(=O)O)C(F)(F)F)c4ccccc43)n1)CN(C)CC2 (stereo not drawn) [Example 144]
100 to 500 nM | 4 | ≤ 100 nM | – | – | – | CCc1c[nH]c2ncc(-c3ccc(NC(C)=O)c(P(C)(C)=O)c3)cc12 [Example 58, N-(2-(dimethylphosphoryl)-4-(3-ethyl-1H-pyrrolo[2,3-b]pyridin-5-yl)phenyl)acetamide]
> 1000 nM | 54 | ≤ 100 nM | – | – | – | CCc1c[nH]c2ncc(-c3ccc(C)c(P(C)(C)=O)c3F)cc12 [Example 62, (3-(3-Ethyl-1H-pyrrolo[2,3-b]pyridin-5-yl)-2-fluoro-6-methylphenyl)dimethylphosphine oxide]
≤ 100 nM | 5 | ≤ 100 nM | – | – | – | COc1cc2c(cc1Nc1ncc(Cl)c(N3CC(C)(C(=O)O)c4ccccc43)n1)CN(C)CC2 (stereo not drawn) [Example 117]
100 to 500 nM | 20 | ≤ 100 nM | – | – | – | CCc1c[nH]c2ncc(-c3ccc(O)c(P(C)(C)=O)c3)cc12 [Example 55, (5-(3-Ethyl-1H-pyrrolo[2,3-b]pyridin-5-yl)-2-hydroxyphenyl)dimethylphosphine oxide]
500 to 1000 nM | 70 | ≤ 100 nM | 500 to 1000 nM | 50 | ≤ 100 nM | CCc1c[nH]c2ncc(-c3ccc(N)c(P(C)(C)=O)c3)cc12 [Example 70, (2-Amino-5-(3-ethyl-1H-pyrrolo[2,3-b]pyridin-5-yl)phenyl)dimethylphosphine oxide]
> 1000 nM | >179 | ≤ 100 nM | – | – | – | COc1cc2c(cc1Nc1ncc(Cl)c(-c3cncc4ccccc34)n1)CN(C)CC2 [Example 48, N-(5-chloro-4-(isoquinolin-4-yl)pyrimidin-2-yl)-6-methoxy-2-methyl-1,2,3,4-tetrahydroisoquinolin-7-amine]
> 1000 nM | 76 | ≤ 100 nM | – | – | – | CC(C)c1c[nH]c2ncc(-c3ccc(N)c(P(C)(C)=O)c3)cc12 [Example 77, (2-Amino-5-(3-isopropyl-1H-pyrrolo[2,3-b]pyridin-5-yl)phenyl)dimethylphosphine oxide]
500 to 1000 nM | 22 | ≤ 100 nM | – | – | – | CCc1c[nH]c2ncc(-c3cc(N)cc(P(C)(C)=O)c3)cc12 [Example 57, (3-Amino-5-(3-ethyl-1H-pyrrolo[2,3-b]pyridin-5-yl)phenyl)dimethylphosphine oxide]
100 to 500 nM | 30 | ≤ 100 nM | – | – | – | COc1cc2c(cc1Nc1ncc3ccn(-c4cccnc4C)c3n1)CN(C)CC2 [Example 41, 6-Methoxy-2-methyl-N-(7-(2-methylpyridin-3-yl)-7H-pyrrolo[2,3-d]pyrimidin-2-yl)-1,2,3,4-tetrahydroisoquinolin-7-amine]

Reference: patent US12612424B2, “HPK1 inhibitors and uses thereof” (Regor Pharmaceuticals, Inc., priority 2019, dated 2026)
